Read-outs that look alike come from different tables or passages of the source.
Key:
[1] = tested on: male mice (CD1 Charles Rivers); experiment: Diarrheic activity, oral; format: in vivo, mouse
Procedure: The test is carried out on male mice (CD1 Charles Rivers) weighing 25 to 30 g, which have gone without food for 6 hours. The product dissolved at 5% in methocel is administered by oral route, using a probang.
The control animals receive only the excipient.
After treatment, the animals are put separately in cages. The bottoms of the cages are covered with blotting paper and are observed at 30, 60, 120 and 180 minute intervals.
The absorbent sheets of paper are changed after each observation.
The consistency of the faeces is evaluated according to the method of Randall and Baruth (Arch. Int. Pharmacodyn. 220, 94, 1976) by following the scale of the following values:
1: slightly soft feces with or without moist ring,
2: slightly soft feces with presence of a well-defined moist circle,
3: soft feces with presence of a large moist circle,
4 feces without consistency with presence of a very large moist circle.
For each product, the dose was noted which caused diarrhoea in 50% of the animals according to the method of Miller and Tainter (Proc. Soc. Exp. Biol. Med., 57 261, 1944).

[2] = tested on: male mice (CD1 Charles Rivers); experiment: Duration of hypothermic action: variations in body temperature; format: in vivo, mouse
Procedure: (§1) The test is carried out on male mice (CD1 Charles Rivers) weighing 25 to 30 g, which have gone without food for 6 hours.
(§2) The body temperature is noted using a thermocouple placed about […] inside the rectum and connected to an electrical temperature recorder.
(§3) The products are administered by oral or sub-cutaneous route and the temperatures are noted at 0 and 30 minutes, 1 hour, 2 hours and 2 and a half hours after treatment.
(§4) The degree of hypothermia is evaluated as the difference between the treated animals and the control animals and the dose necessary to reduce the body temperature by 1° C. is determined.
The duration of action of the products is determined by using doses which can reduce the temperature by 1.5° C. to 1.7° C.

Solubility = format: physicochemical; settings: for solubility in water: H2O
[3] = tested on: male mice (CD1 Charles Rivers); experiment: Duration of hypothermic action: variations in body temperature; format: in vivo, mouse; settings: 180 min
[4] = tested on: male mice (CD1 Charles Rivers); experiment: Hypothermic activity: dose reducing body temperature by 1° C.; format: in vivo; settings: Mus musculus, read-out: Effective dose (-1° C.)
Procedure: as §1, §2, §3, §4

[5] = tested on: isolated ileum of a guinea pig; experiment: Test of the isolated ileum of a guinea pig (agonist contraction); settings: Cavia porcellus, Tyrode solution, 37° C., read-out: pD2 (negative logarithm of the dose which produces 50% of the maximum effect) (converted)
Procedure: 1Test of the isolated ileum of a guinea pig
Ileum fragments are removed from a guinea-pig killed by decapitation. The isolated ileum is placed in 10 cm^3 of Tyrode solution at 37° C. and aerated by a mixture of oxygen (95%) and carbon dioxide (5%). Contractions caused by the products are recorded using a sensor connected to a polygraph. The products under test are added, at concentrations comprised between 1.10^-3 M and 1.10^-8 M/1.
The products showing a contracturating effect are tested relative to atropine and hexamethonium in order to establish whether the activity is of "muscarinic" or "nicotinic" type.
The agonist activity is expressed in pD2 (negative logarithm of the dose which produces 50% of the maximum effect).

[6] = Acute toxicity, oral, mortality over 7 days; settings: mouse, in vivo, male mice
Procedure: The test is carried out on male mice (CD1 Charles Rivers) weighing 22 to 24 g, which have gone without food for 16 hours. […] The mortality is noted over the 7 days following the treatment.

[7] = tested on: patients who have a memory deficiency; settings: intravenous route; cited from earlier work
[8] = tested on: central cholinergic system; settings: cited from earlier work

SMILES | solubility in 2N HCl (Solubility) | solubility in 2N NaOH (Solubility) | solubility in water (Solubility) | DE50 (dose which caused diarrhoea in 50% of the animals) [1] [mg/kg] | ED (-1 C body temperature) ([4]; SC route) [mg/kg] | ED (-1 C body temperature) ([4]; oral route) [mg/kg] | EC50 [5] [nM] | further results
C=CCN(CC=C)C(=O)COC(=O)N1CCC=C(C=NOC)C1 [Example 3, (di(2-propenyl)-aminocarbon-yl)-methyl 3-(methoxyiminomethyl)-1,2,5,6-tetrahydropyridine-1-carboxylate] | insoluble | insoluble | insoluble | > 50 | 8 | 9 | > 100000 | Variation in body temperature ([2]; 12 mg/kg, sc, 30 min): -0.9 °C; Variation in body temperature ([2]; 12 mg/kg, sc, 60 min): -1.6 °C; Variation in body temperature ([2]; 12 mg/kg, sc, 120 min): -0.6 °C; Variation in body temperature ([2]; 15 mg/kg, os, 0 min): +0.1 °C; Variation in body temperature ([2]; 15 mg/kg, os, 30 min): -1.3 °C; Variation in body temperature ([2]; 15 mg/kg, os, 60 min): -1.7 °C; Variation in body temperature ([2]; 15 mg/kg, os, 120 min): -0.5 °C; Variation in body temperature ([3]; 15 mg/kg, os): +0.1 °C; LD50 at 168 h [6]: 500 mg/kg
COC(=O)C1=CCCN(C)C1 [Arecoline, HBr, reference compound] | – | – | – | 35 | 3 | 190 | 126 | Variation in body temperature ([2]; 3.5 mg/kg, sc, 0 min): -0.1 °C; Variation in body temperature ([2]; 3.5 mg/kg, sc, 30 min): -1.5 °C; Variation in body temperature ([2]; 3.5 mg/kg, sc, 60 min): -0.1 °C; Variation in body temperature ([2]; 3.5 mg/kg, sc, 120 min): +0.2 °C; Variation in body temperature ([3]; 3.5 mg/kg, sc): +0.2 °C
COC(=O)C1=CCCN(C)C1 [arecoline] | – | – | – | – | – | – | – | effect on patients who have a memory deficiency [7]: positive effect; duration of action ([8]; in vivo): short-term action; activity by oral route ([8]; oral route): very weak activity by oral route

The next lines start with results.

solubility in 2N HCl (Solubility) | solubility in 2N NaOH (Solubility) | solubility in water (Solubility) | SMILES | DE50 (dose which caused diarrhoea in 50% of the animals) [1] [mg/kg] | ED (-1 C body temperature) ([4]; SC route) [mg/kg] | ED (-1 C body temperature) ([4]; oral route) [mg/kg] | EC50 [5] [nM] | further results
soluble | insoluble | soluble | CON=CC1=CCCN(C(=O)OCC(=O)N2CCN(C)CC2)C1 [Example 5, (4 methyl-1-piperazinyl)-carbonylmethyl 3-(methoxyiminomethyl)-1,2,5,6-tetrahydropyridine-1-carboxylate] | – | – | – | – | –
insoluble | insoluble | insoluble | CCN(CC)C(=O)COC(=O)N1CCC=C(C=NOC)C1 [Example 2, (diethylaminocarbonyl) methyl 3-(methoxyiminomethyl)-1,2,5,6-tetrahydropyridine-1-carboxylate] | – | – | – | – | –
insoluble | insoluble | insoluble | CON=CC1=CCCN(C(=O)OCC(=O)N2CCCCC2)C1 [Example 4, (1-piperidinylcarbonyl)-methyl 3-(methoxyiminomethyl)-1,2,5,6-tetrahydropyridine-1-carboxylate] | – | – | – | – | –

From patent US5183896A, “Derivatives of 1,2,5,6-tetrahydropyridin-3-carboxaldehyde oxime” (Roussel Uclaf, priority 1990, dated 1993)
